Measured values as given in ChEMBL document CHEMBL1201862, “PubChem BioAssay data set” (2004).
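Each compound was tested at five concentrations against cells in 96-well plates for 48 hours. Here, GI50 denotes the concentration required for 50% inhibition of growth.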 The source made the active and inactive calls. Rule as the data show it: active = GI50 up to about 1.1 µM and inactive = higher.

Tests used:
Experiment in all cases: growth of human tumour cells (NCI), 48 h
ACHN = tested on: ACHN
OVCAR-4 = tested on: OVCAR-4
HCC 2998 = tested on: HCC 2998
UO-31 = tested on: UO-31
SW-620 = tested on: SW-620
SF-268 = tested on: SF-268
RPMI-8226 = tested on: RPMI-8226
OVCAR-8 = tested on: OVCAR-8
MOLT-4 = tested on: MOLT-4
NCI/ADR-RES = tested on: NCI/ADR-RES
MCF7 = tested on: MCF7
MDA-N = tested on: MDA-N
EKVX = tested on: EKVX
HCT-15 = tested on: HCT-15
HL-60 = tested on: HL-60
SNB-19 = tested on: SNB-19
HOP-62 = tested on: HOP-62
Hs-578T = tested on: Hs-578T
SK-OV-3 = tested on: SK-OV-3
Malme-3M = tested on: Malme-3M

SMILES	GI50 (ACHN)	GI50 (OVCAR-4)	GI50 (HCC 2998)	GI50 (UO-31)	GI50 (SW-620)	GI50 (SF-268)	GI50 (RPMI-8226)	GI50 (OVCAR-8)	GI50 (MOLT-4)	GI50 (NCI/ADR-RES)	GI50 (MCF7)	GI50 (MDA-N)	GI50 (EKVX)	GI50 (HCT-15) [µM]	GI50 (HL-60)	GI50 (SNB-19)	GI50 (HOP-62)	GI50 (Hs-578T)	GI50 (SK-OV-3)	GI50 (Malme-3M)
O=C1/C(=C/c2ccc(OC(=O)c3ccccc3)cc2)CCC/C1=C\c1ccc(OC(=O)c2ccccc2)cc1	> 100 µM (inactive)	> 100 µM (inactive)	> 100 µM (inactive)	> 100 µM (inactive)	> 100 µM (inactive)	> 100 µM (inactive)	> 100 µM (inactive)	> 100 µM (inactive)	> 100 µM (inactive)	> 100 µM (inactive)	> 100 µM (inactive)	> 100 µM (inactive)	> 100 µM (inactive)	> 100	> 100 µM (inactive)	> 100 µM (inactive)	> 100 µM (inactive)	> 100 µM (inactive)		
C=C1CN(C(=O)c2cc3cc(OC)c(OC)c(OC)c3[nH]2)c2cc([N+](=O)[O-])ccc21		> 100 µM (inactive)	> 100 µM (inactive)	> 100 µM (inactive)	> 100 µM (inactive)	15.5 µM (inactive)	> 100 µM (inactive)	> 100 µM (inactive)	69.3 µM (inactive)	> 100 µM (inactive)	> 100 µM (inactive)	> 100 µM (inactive)	> 100 µM (inactive)	> 100	> 100 µM (inactive)	45.8 µM (inactive)		4.47 µM (inactive)	33.2 µM (inactive)	> 100 µM (inactive)
Nc1nc(Cl)cc(NCC2(O)CCCC2)n1	> 100 µM (inactive)	> 100 µM (inactive)	> 100 µM (inactive)	78.9 µM (inactive)	> 100 µM (inactive)	> 100 µM (inactive)	> 100 µM (inactive)	> 100 µM (inactive)	> 100 µM (inactive)	> 100 µM (inactive)	> 100 µM (inactive)	> 100 µM (inactive)	> 100 µM (inactive)	> 100	> 100 µM (inactive)		> 100 µM (inactive)	> 100 µM (inactive)	> 100 µM (inactive)	> 100 µM (inactive)
O=C(Nc1ccc(F)cc1)c1cc2ccc(O)cc2o/c1=N\c1ccccc1F	20 µM (inactive)	21.3 µM (inactive)	33.7 µM (inactive)		34.2 µM (inactive)	29.1 µM (inactive)	8.04 µM (inactive)	13.7 µM (inactive)	26.5 µM (inactive)	15.6 µM (inactive)	28.8 µM (inactive)	34.6 µM (inactive)	13.5 µM (inactive)	18.9	18.6 µM (inactive)		11.5 µM (inactive)	26.8 µM (inactive)	12 µM (inactive)	50 µM (inactive)
CSc1[nH]nc(N)c1C(=O)Nc1ccc(Cl)cc1		50.5 µM (inactive)	99.8 µM (inactive)	33 µM (inactive)	57.3 µM (inactive)	79.6 µM (inactive)	37.7 µM (inactive)	40.9 µM (inactive)	51.6 µM (inactive)	35.2 µM (inactive)	84.7 µM (inactive)	> 100 µM (inactive)	> 100 µM (inactive)	46.2	34.8 µM (inactive)	66.5 µM (inactive)		> 100 µM (inactive)	> 100 µM (inactive)	63.7 µM (inactive)
CCO/N=C(/CC)c1ccc(Br)s1	> 100 µM (inactive)	> 100 µM (inactive)	> 100 µM (inactive)	> 100 µM (inactive)	> 100 µM (inactive)	> 100 µM (inactive)		> 100 µM (inactive)	53.5 µM (inactive)	> 100 µM (inactive)	> 100 µM (inactive)	> 100 µM (inactive)	> 100 µM (inactive)	> 100	33 µM (inactive)	> 100 µM (inactive)	> 100 µM (inactive)	> 100 µM (inactive)	> 100 µM (inactive)	> 100 µM (inactive)
CCOC(=O)C(=O)/C(=C/n1c(=S)[nH]c2ccc([N+](=O)[O-])cc21)C(=O)OCC	> 100 µM (inactive)	> 100 µM (inactive)	> 100 µM (inactive)	> 100 µM (inactive)	> 100 µM (inactive)	> 100 µM (inactive)	> 100 µM (inactive)	> 100 µM (inactive)	> 100 µM (inactive)	> 100 µM (inactive)	> 100 µM (inactive)	> 100 µM (inactive)			> 100 µM (inactive)	> 100 µM (inactive)	> 100 µM (inactive)	> 100 µM (inactive)	> 100 µM (inactive)	
CC[C@]1(c2ccc3c(c2)OCO3)C=[N+]([O-])O[C@H](OC2CCCC2(c2ccccc2)c2ccccc2)[C@@H]1OC(C)=O (some centres not stated)	2.81 µM (inactive)	2.62 µM (inactive)	1.85 µM (inactive)	2.05 µM (inactive)	2.96 µM (inactive)	2.4 µM (inactive)		1.95 µM (inactive)	2 µM (inactive)	1.92 µM (inactive)	2.47 µM (inactive)	3.83 µM (inactive)	2.42 µM (inactive)	2.26	2.87 µM (inactive)	3.22 µM (inactive)	2.08 µM (inactive)	3.16 µM (inactive)	3.01 µM (inactive)	
CCCNC(C#N)c1ccc(OCCCCCCCCCCOc2ccc(C(C#N)NCCC)cc2)cc1 (configuration not stated)	83.9 µM (inactive)	34.5 µM (inactive)	> 100 µM (inactive)	51.8 µM (inactive)	41.3 µM (inactive)	61.8 µM (inactive)		30.9 µM (inactive)	17.1 µM (inactive)	56.8 µM (inactive)	35.2 µM (inactive)	29.4 µM (inactive)	60.5 µM (inactive)	47.3	17.3 µM (inactive)	33.2 µM (inactive)	42.8 µM (inactive)	37.7 µM (inactive)	64 µM (inactive)	64 µM (inactive)
CCOC(=O)c1ccc(C(=O)/C(C#N)=C2\CCCN2C)[nH]1	> 100 µM (inactive)	> 100 µM (inactive)	> 100 µM (inactive)	> 100 µM (inactive)	> 100 µM (inactive)	> 100 µM (inactive)	> 100 µM (inactive)	> 100 µM (inactive)	> 100 µM (inactive)	> 100 µM (inactive)	> 100 µM (inactive)	> 100 µM (inactive)	> 100 µM (inactive)	> 100	> 100 µM (inactive)	> 100 µM (inactive)	> 100 µM (inactive)	> 100 µM (inactive)		> 100 µM (inactive)
Cc1cc2c(c(/C=N/c3ccc([N+](=O)[O-])cc3)c1)OC1(C=C2)Oc2ccccc2C(=O)N1C (configuration not stated)	14.8 µM (inactive)	22.2 µM (inactive)	19.8 µM (inactive)	13.5 µM (inactive)	29.1 µM (inactive)	18.7 µM (inactive)	19.3 µM (inactive)	16.1 µM (inactive)	4.94 µM (inactive)	18.9 µM (inactive)	17.6 µM (inactive)	24.8 µM (inactive)	13.6 µM (inactive)	17.9	23.2 µM (inactive)	34.4 µM (inactive)	29.9 µM (inactive)	27.2 µM (inactive)	22.2 µM (inactive)	
C/C=C1/CN2CCC34C(=C(C(=O)OC)C1CC23)Nc1ccc(O)cc14 (configuration not stated)	> 100 µM (inactive)	> 100 µM (inactive)	> 100 µM (inactive)	> 100 µM (inactive)	> 100 µM (inactive)	61.8 µM (inactive)	> 100 µM (inactive)	> 100 µM (inactive)	> 100 µM (inactive)	> 100 µM (inactive)	> 100 µM (inactive)	> 100 µM (inactive)	> 100 µM (inactive)	> 100	> 100 µM (inactive)	> 100 µM (inactive)		34.3 µM (inactive)	> 100 µM (inactive)	> 100 µM (inactive)
COC(=O)C(C)(Cc1ccc2c(c1)nnn2C(C)=O)NC(C)=O (configuration not stated)	> 100 µM (inactive)	> 100 µM (inactive)	> 100 µM (inactive)	> 100 µM (inactive)	> 100 µM (inactive)	> 100 µM (inactive)	> 100 µM (inactive)	> 100 µM (inactive)	> 100 µM (inactive)	> 100 µM (inactive)	> 100 µM (inactive)	> 100 µM (inactive)	> 100 µM (inactive)	> 100	> 100 µM (inactive)	> 100 µM (inactive)		> 100 µM (inactive)	> 100 µM (inactive)	> 100 µM (inactive)
CC1(C)N/C(=C\[N+](=O)[O-])C(C)(C)N1O	> 10 µM (inactive)	> 10 µM (inactive)	> 10 µM (inactive)		> 10 µM (inactive)	> 10 µM (inactive)	> 10 µM (inactive)	> 10 µM (inactive)	> 10 µM (inactive)	> 10 µM (inactive)	> 10 µM (inactive)	> 10 µM (inactive)	> 10 µM (inactive)	> 10	> 10 µM (inactive)	> 10 µM (inactive)	> 10 µM (inactive)	> 10 µM (inactive)	> 10 µM (inactive)	> 10 µM (inactive)
CN(C)Cc1cc(C(=O)/C=C/c2ccccc2Cl)cc(CN(C)C)c1O	4.45 µM (inactive)		20.2 µM (inactive)	10.6 µM (inactive)	4.86 µM (inactive)	15.9 µM (inactive)	13.8 µM (inactive)	10.1 µM (inactive)	10.9 µM (inactive)	12.8 µM (inactive)	9.66 µM (inactive)	13 µM (inactive)	14.7 µM (inactive)	14.7	4.3 µM (inactive)	13.9 µM (inactive)	8.15 µM (inactive)	18.3 µM (inactive)		11 µM (inactive)
